Source: patent publication US20100068698A1, “PRODUCTION OF […] C VIRUS PARTICLES IN CELL CULTURE” (priority 2008, published 2010)

Test system: infectious H77S (GT 1a virus)
Assay: HCV infectious virus EC50 determination (HCV RNA by quantitative RT-PCR in infected Rof-0c cells)
Format: cell-based, Hepatitis C virus genotype 1a
Settings: Hepatitis C virus, GT1A, 72 h, 96-well plate, virus stock grown in human serum, three days post-infection, read-out: potency against infectious H77S (EC50, 50% reduction in HCV RNA)
Procedure: FIG. 6. Potency of an NS5B inhibitor and HCV entry inhibitor against the GT 1a infectious virus. Rof-0c cells were infected with either H77S or the chimera H77S RO-51-5B. At the time of infection, the cells were treated with a serial dilution of either the NS5B inhibitor HCV-796 or the HCV entry inhibitor JS81. After three days, the intracellular RNA was purified and used to determine the amount of HCV RNA.
The presence of HCV RNA was examined after purification of total cellular RNA using the PerfectPure RNA 96 Cell Kit (5 Prime) according to the manufacturer's instructions. To quantitate the amount of HCV RNA, cDNA was amplified using either the Taqman Universal PCR mix (Applied Biosystems) or the TaqMan EZ RT-PCR kit (Applied Biosystems) with a set of primers and probe complementary to a region within the 5′ untranslated region (UTR). The primer and probe sequences are: (HCV 20F) […] (SEQ ID NO:4); (HCV 114R) […] (SEQ ID NO:5); (HCV P43) FAM-[…]-TAMRA (SEQ ID NO:6).
The sensitivity of infectious HCV to antivirals was determined using the genotype 1a strains H77S or H77S RO-51-5B. […] Three days post-infection, the HCV RNA was quantified as described above. […]
Potency of HCV inhibitors against GT1a virus. […] The HCV stocks were analyzed to determine if they would be sufficient to measure the potency of HCV inhibitors. […]

## CNC(=O)c1c(-c2ccc(F)cc2)oc2cc(N(CCO)S(C)(=O)=O)c(C3CC3)cc12 [HCV-796]
  EC50: 32 ± 4 nM
